From ChEMBL document CHEMBL3826961, “Lanostane triterpenoids from Ganoderma curtisii and their NO production inhibitory activities of LPS-induced microglia” (Bioorg Med Chem Lett, 2016)

Assays:
[1] = Antiinflammatory activity in mouse BV2 cells assessed as inhibition of LPS-induced NO production incubated for 24 hrs measured after 15 mins by Griess assay; type: functional, cell-based; settings: BV-2
[2] = Cytotoxicity against LPS-induced mouse BV2 cells assessed as cell viability after 24 hrs by MTT assay; type: cell-based, BV-2; design: concentration or dose not given beside the values; settings: read-out: Activity

Row | Compound | IC50 [1] | viability at 24 h [2]
1 | C[C@H](CC[C@H](O)[C@](C)(O)CO)[C@H]1CC[C@@]2(C)C3=CC[C@H]4C(C)(C)C(=O)CC[C@]4(C)C3=CC[C@]12C [GANODERMANONTRIOL] | 23.6 µM | 85.5%
2 | COC(=O)C(C)CC(=O)C[C@@H](C)[C@H]1C[C@H](O)[C@@]2(C)C3=C(C(=O)C[C@]12C)[C@@]1(C)CCC(=O)C(C)(C)[C@@H]1C[C@@H]3O (stereo partly specified) [METHYL GANODERATE A] | 8.01 µM | 91.3%
3 | CC(CC(=O)C[C@@H](C)[C@H]1C[C@H](O)[C@@]2(C)C3=C(C(=O)C[C@]12C)[C@@]1(C)CCC(=O)C(C)(C)[C@@H]1CC3)C(=O)O (stereo partly specified) [GANOLUCIDIC ACID A] | 25.3 µM | 95.2%
4 | CC(=O)O[C@@H]1C(=O)C2=C(C(=O)C[C@H]3C(C)(C)[C@@H](O)CC[C@]23C)[C@]2(C)C(=O)C[C@H](/C(C)=C\C(=O)CC(C)C(=O)O)[C@@]12C (stereo partly specified) | 10.4 µM | 95.1%
5 | CC(CC(=O)C[C@@H](C)[C@H]1CC(=O)[C@@]2(C)C3=C(C(=O)[C@@H](O)[C@]12C)[C@@]1(C)CC[C@H](O)C(C)(C)[C@@H]1CC3=O)C(=O)O (stereo partly specified) [GANODERIC ACID C6] | 15.4 µM | 91.6%
6 | CC(CC(=O)C[C@@H](C)[C@H]1CC(=O)[C@@]2(C)C3=C(C(=O)C[C@]12C)[C@@]1(C)CC[C@H](O)C(C)(C)[C@@H]1C[C@@H]3O)C(=O)O (stereo partly specified) [GANODERIC ACID B] | 20.2 µM | 94.7%
7 | CC(CC(=O)C[C@](C)(O)[C@H]1CC(=O)[C@@]2(C)C3=C(C(=O)[C@@H](O)[C@]12C)[C@@]1(C)CC[C@H](O)C(C)(C)[C@@H]1C[C@@H]3O)C(=O)O (stereo partly specified) | 21.3 µM | 96.3%
8 | CC(=O)O[C@@H]1C(=O)C2=C(C(=O)C[C@H]3C(C)(C)[C@@H](O)CC[C@]23C)[C@]2(C)C(=O)C[C@H]([C@H](C)CC(=O)CC(C)C(=O)O)[C@@]12C (stereo partly specified) [GANODERIC ACID H] | 12.6 µM | 90.4%
9 | O=c1c(O)c(-c2ccc(O)c(O)c2)oc2cc(O)cc(O)c12 [QUERCETIN] | 15.1 µM | 92.5%
10 | CC(CC(=O)C[C@@H](C)[C@H]1C[C@H](O)[C@@]2(C)C3=C(C(=O)C[C@]12C)[C@@]1(C)CCC(=O)C(C)(C)[C@@H]1CC3=O)C(=O)O (stereo partly specified) [GANODERIC ACID J] | 22 µM | 93.7%
11 | C/C(=C/C(=O)CC(C)C(=O)O)[C@H]1C[C@H](O)[C@@]2(C)C3=C(C(=O)C[C@]12C)[C@@]1(C)CCC(=O)C(C)(C)[C@@H]1C[C@@H]3O (stereo partly specified) | 8.73 µM | 92.5%
12 | CC(CC(=O)C[C@@H](C)[C@H]1C[C@H](O)[C@@]2(C)C3=C(C(=O)C[C@]12C)[C@@]1(C)CCC(=O)C(C)(C)[C@@H]1C[C@@H]3O)C(=O)O (stereo partly specified) | 13.6 µM | 97.9%
13 | C/C(=C/C(=O)CC(C)C(=O)O)[C@H]1CC(=O)[C@@]2(C)C3=C(C(=O)[C@@H](O)[C@]12C)[C@@]1(C)CC[C@H](O)C(C)(C)[C@@H]1C[C@@H]3O (stereo partly specified) | 9.55 µM | 93.5%
14 | CC(CC(=O)C[C@@H](C)[C@H]1CC(=O)[C@@]2(C)C3=C(C(=O)C[C@]12C)[C@@]1(C)CCC(=O)C(C)(C)[C@@H]1CC3=O)C(=O)O (stereo partly specified) | 9.41 µM | 97.5%
15 | CC(CC(=O)C[C@@H](C)[C@H]1C[C@H](O)[C@@]2(C)C3=C(C(=O)C[C@]12C)[C@@]1(C)CC[C@H](O)C(C)(C)[C@@H]1C[C@@H]3O)C(=O)O (stereo partly specified) | 13.6 µM | 90.7%
16 | C/C(=C/C(=O)CC(C)C(=O)O)[C@H]1CC(=O)[C@@]2(C)C3=C(C(=O)[C@@H](O)[C@]12C)[C@@]1(C)CC[C@H](O)C(C)(C)[C@@H]1CC3=O (stereo partly specified) | 25.9 µM | 94.5%
17 | CC(CC(=O)C[C@@H](C)[C@H]1CC(=O)[C@@]2(C)C3=C(C(=O)C[C@]12C)[C@@]1(C)CCC(=O)C(C)(C)[C@@H]1C[C@@H]3O)C(=O)O (stereo partly specified) [GANODERIC ACID D] | 10.9 µM | 93.3%
18 | CC(CC(=O)C[C@@H](C)[C@H]1C[C@H](O)[C@@]2(C)C3=C(C(=O)C[C@]12C)[C@@]1(C)CC[C@H](O)C(C)(C)[C@@H]1CC3=O)C(=O)O (stereo partly specified) | 6.5 µM | 89.3%
19 | CC(=O)O[C@@H]1C(=O)C2=C(C(=O)C[C@H]3C(C)(C)C(=O)CC[C@]23C)[C@]2(C)C(=O)C[C@H]([C@H](C)CC(=O)CC(C)C(=O)O)[C@@]12C (stereo partly specified) [GANODERIC ACID F] | 24.1 µM | 90.6%
20 | CC(CC(=O)C[C@@H](C)[C@H]1C[C@H](O)[C@@]2(C)C3=C(C(=O)C[C@]12C)[C@@]1(C)CC[C@H](O)[C@@](C)(CO)[C@@H]1C[C@@H]3O)C(=O)O (stereo partly specified) | 4.15 µM | 97.8%
21 | CC(CC(=O)C[C@@H](C)[C@H]1CC(=O)[C@@]2(C)C3=C(C(=O)[C@@H](O)[C@]12C)[C@@]1(C)CCC(=O)C(C)(C)[C@@H]1C[C@@H]3O)C(=O)O (stereo partly specified) | 5.91 µM | 92.3%
22 | C/C(=C/C(=O)CC(C)C(=O)O)[C@H]1CC(=O)[C@@]2(C)C3=C(C(=O)C[C@]12C)[C@@]1(C)CCC(=O)C(C)(C)[C@@H]1C[C@@H]3O (stereo partly specified) | 13.8 µM | 96.5%
23 | C/C(=C\CC[C@@H](C)[C@H]1CC[C@@]2(C)C3=CC[C@H]4C(C)(C)[C@@H](O)CC[C@]4(C)C3=CC[C@]12C)CO [GANODEROL B] | 13.7 µM | 91.3%
24 | COC(=O)CC[C@@H](C)[C@H]1CC(=O)[C@@]2(C)C3=C(C(=O)[C@@H](O)[C@]12C)[C@@]1(C)CC[C@H](O)C(C)(C)[C@@H]1CC3=O [METHYL LUCIDENATE L] | 22.5 µM | 83.5%
25 | CC(=O)O[C@@H]1C(=O)C2=C(C(=O)C[C@H]3C(C)(C)C(=O)CC[C@]23C)[C@]2(C)C(=O)C[C@H](/C(C)=C\C(=O)CC(C)C(=O)O)[C@@]12C (stereo partly specified) | 28 µM | 94.3%
26 | C/C(=C/C(=O)CC(C)C(=O)O)[C@H]1C[C@H](O)[C@@]2(C)C3=C(C(=O)C[C@]12C)[C@@]1(C)CCC(=O)C(C)(C)[C@@H]1CC3 (stereo partly specified) | 26.8 µM | 89.3%
27 | CC(CC(=O)C[C@@H](C)[C@H]1CC(=O)[C@@]2(C)C3=C(C(=O)[C@@H](O)[C@]12C)[C@@]1(C)CC[C@H](O)C(C)(C)[C@@H]1C[C@@H]3O)C(=O)O (stereo partly specified) [GANODERIC ACID G] | 5.77 µM | 95.2%
28 | CC(=O)O[C@@H]1C(=O)C2=C([C@@H](O)C[C@H]3C(C)(C)[C@@H](O)CC[C@]23C)[C@]2(C)C(=O)C[C@H]([C@H](C)CC(=O)CC(C)C(=O)O)[C@@]12C (stereo partly specified) [GANODERIC ACID K] | 3.65 µM | 98.5%
